These are literature values, as cited in PMC11575912 (Journal of Clinical Oncology, 2024).

For data set [1] the following is noted: once daily.
The test system of data set [2] is CYP. The following applies: in vitro or in the human mass balance study; ref unpublished data on file.
For data set [3], the system named is p110α over the β, δ, and γ isoforms. The conditions noted are these: biochemical assays.

SMILES strings stand for the structures.

In the case of `C[C@H](Nc1ccc2c(c1)OCCn1cc(N3C(=O)OC[C@H]3C(F)F)nc1-2)C(N)=O` [inavolisib], the “Single-agent maximum tolerable dose” value in data set [1] is recorded as 9 mg. For the same compound, the CYP-mediated metabolism result in data set [2] is “did not undergo extensive CYP-mediated metabolism”. Also, the “Selectivity for p110α over the β, δ, and γ isoforms” value in data set [3] is listed as over 300 fold.
